Tested on: OVCAR-8 complex spheroid, growth inhibition
Experiment: Anticancer human tumor OVCAR-8 cell line growth inhibition [Asc];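 note: spheroids exposed to agents for 7 days before readout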;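 for viability, T/C: percent viability relative to DMSO vehicle wells taken as 100%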
Settings: for IC50: curve of first compound; for viability, T/C: stronger effect = lower value
Method: Multicellular complex tumor spheroid response to apoptosis pathway targeting inhibitors Alrizomadlin, Pelcitoclax, and Dasminapant in combination with a variety of drugs and investigational agents in selected tumor cell lines
The MDM2 inhibitor alrizomadlin, the Bcl-2/Bcl-xL inhibitor pelcitoclax, and the IAPs inhibitor dasminapant were evaluated both individually and in combination with standard of care and investigational anticancer small molecules within a complex spheroid model of solid tumors. . Complex spheroids include a stromal component modeled by human endothelial cells (HUVEC) and fibroblasts modeled by human mesenchymal stem cells (MSCs). The concentration ranges selected for each drug and investigational agent were based upon clinically achievable concentrations if the clinical Cmax of the agent was known.
Compounds. The drugs and investigational agents: alrizomadlin (APG-115; NSC831270), pelcitoclax (APG-1252; NSC835773), dasminapant (APG-1387;NSC834197), TAK-243 (NSC785004), copanlisib (NSC809693), olaparib (NSC753686), talazoparib (NSC767125), cobimetinib (NSC 768068), eltanexor (KPT-8602, NSC 794443), abemaciclib (NSC 768073), sotorasib (NSC818433), adagrasib (NSC 831453), MRTX-1133 (NSC 836407), Iadademestat (ORY1001, NSC 806812), and RMC-4630 (NSC839698), were obtained from the NCI Developmental Therapeutics Program Chemical Repository. The FDA-approved anticancer drug set is available from the Developmental Therapeutics Program at https://dtp.cancer.gov/organization/dscb/obtaining/available plates.htm. […] The stock solutions were prepared in dimethyl sulfoxide (DMSO, Sigma-Aldrich, St. Louis, MO, cat. D2650) at 800-fold the tested concentration and stored at -70 degrees C prior to their use. All drugs and investigational agents were tested over a range starting from a high concentration at or near the clinical Cmax and decreasing in half-log increments. If the clinical Cmax for an agent had not been determined, the highest concentration tested was 10 microM.
The patient-derived cancer (PDC) cell lines include five colon adenocarcinomas: 186277-243-T-J2-PDC, 616215-338-R-J1-PDC, 439559-082-T-J2-PDC, 463943-066-T-J2-PDC, and 519858-162-T-J1-PDC; three pancreatic carcinomas: 323965-272-R-J2-PDC, 521955-158-R6-J3-PDC, and 521955-158-R2-J5-PDC; two uterine sarcomas: 327498-152-R-J2-PDC and 993429-296-R-J1-PDC; two rhabdomyosarcomas: 755483-174-R-J1-PDC and 772245-204-R-J1-PDC; two soft tissue sarcomas: 126254-015-R-J1-PDC and 494315-158-R-J1-PDC; two malignant fibrous histiocytomas: 317291-083-R-J1-PDC and 596521-263-R-J1-PDC; two breast carcinomas: 171881-019-R-J1-PDC and 885512-296-R-J2-PDC; and one ovarian carcinoma: 6556581-035-R-J-PDC were obtained from the NCI PDMR, (https://pdmr.cancer.gov). The established cell lines HSSY-2 synovial sarcoma (RRID:CVCL 8719), SYO-1 synovial sarcoma (RRID:CVCL_7146), MPNST malignant peripheral neural sheath tumor were obtained from the Sloan Kettering Institute. The following established cell lines were purchased from the American Type Culture Collection (ATCC, Manassas, VA), Sor the received from the NCI repository:, PANC-1 pancreatic carcinoma (CRL-1469, RRID:CVCL_0480), OVCAR-5 ovarian carcinoma (RRID:CVCL_1628), OVCAR-8 ovarian carcinoma (RRID:CVCL_1629), , MCF-7 breast carcinoma (CRL-12584, RRID:CVCL_0031), MDA-MB-231 breast carcinoma (CRL-12532, RRID:CVCL_0062), NCI-H1876 small cell lung carcinoma (CRL-5902, RRID:CVCL_1503), NCI-H510A small cell lung carcinoma (HTB-184, RRID:CVCL_1565), NCI-H1417 (CRL-5869, RRID:CVCL_1469), and NCI-H196 small cell lung carcinoma (CRL-5823, RRID:CVCL_1509). Dr. Peter Houghton (Greehey Children's Cancer Research Institute, University of Texas Health Science Center, San Antonio, TX) provided Rh-18 rhabdomyosarcoma (RRID:CVCL_1659). Pooled donor human umbilical vein endothelial cells (HUVEC, Lonza, cat. CC-2519) and human mesenchymal stem cells (hMSC, Lonza, cat. PT-2501) were purchased from Lonza (Walkersville, MD).
Cell Culture. […]

[1] = second compound 0.00949 µM, first compound 0.0316 µM
[2] = second compound 0.00949 µM, first compound 0.1 µM
[3] = second compound 0.03 µM, first compound 0.0316 µM
[4] = second compound 0.03 µM, first compound 0.1 µM
[5] = second compound 0.0949 µM, first compound 0.0316 µM
[6] = second compound 0.0949 µM, first compound 0.1 µM
[7] = second compound 0.3 µM, first compound 0.0316 µM
[8] = second compound 0.3 µM, first compound 0.1 µM
[9] = second compound 0.949 µM, first compound 0.0316 µM
[10] = second compound 0.949 µM, first compound 0.1 µM
[11] = second compound 3 µM, first compound 0.0316 µM
[12] = second compound 3 µM, first compound 0.1 µM

Cn1ncnc1[C@H]1c2n[nH]c(=O)c3cc(F)cc(c23)N[C@@H]1c1ccc(F)cc1 + CCN1C(C(=O)NC23CCC(C(=O)O)(CC2)CC3)C(c2cccc(Cl)c2F)C2(C(=O)Nc3cc(Cl)ccc32)C12CCCCC2
IC50 (second compound 0.00949 µM): > 0.1 µM
IC50 (second compound 0.03 µM): > 0.1 µM
IC50 (second compound 0.0949 µM): > 0.1 µM
IC50 (second compound 0.3 µM): > 0.1 µM
IC50 (second compound 0.949 µM): > 0.1 µM
IC50 (second compound 3 µM): > 0.1 µM
viability, T/C (second compound 0.00949 µM, first compound 0.000316 µM): 90.7%
viability, T/C (second compound 0.00949 µM, first compound 0.001 µM): 82.6%
viability, T/C (second compound 0.00949 µM, first compound 0.00316 µM): 105%
viability, T/C (second compound 0.00949 µM, first compound 0.01 µM): 111%
viability, T/C [1]: 105%
viability, T/C [2]: 128%
viability, T/C (second compound 0.03 µM, first compound 0.000316 µM): 96%
viability, T/C (second compound 0.03 µM, first compound 0.001 µM): 94.3%
viability, T/C (second compound 0.03 µM, first compound 0.00316 µM): 104%
viability, T/C (second compound 0.03 µM, first compound 0.01 µM): 109%
viability, T/C [3]: 107%
viability, T/C [4]: 126%
viability, T/C (second compound 0.0949 µM, first compound 0.000316 µM): 89.8%
viability, T/C (second compound 0.0949 µM, first compound 0.001 µM): 93.7%
viability, T/C (second compound 0.0949 µM, first compound 0.00316 µM): 110%
viability, T/C (second compound 0.0949 µM, first compound 0.01 µM): 95.5%
viability, T/C [5]: 127%
viability, T/C [6]: 101%
viability, T/C (second compound 0.3 µM, first compound 0.000316 µM): 87.8%
viability, T/C (second compound 0.3 µM, first compound 0.001 µM): 110%
viability, T/C (second compound 0.3 µM, first compound 0.00316 µM): 97.7%
viability, T/C (second compound 0.3 µM, first compound 0.01 µM): 97%
viability, T/C [7]: 106%
viability, T/C [8]: 123%
viability, T/C (second compound 0.949 µM, first compound 0.000316 µM): 111%
viability, T/C (second compound 0.949 µM, first compound 0.001 µM): 92%
viability, T/C (second compound 0.949 µM, first compound 0.00316 µM): 95.3%
viability, T/C (second compound 0.949 µM, first compound 0.01 µM): 97.1%
viability, T/C [9]: 109%
viability, T/C [10]: 126%
viability, T/C (second compound 3 µM, first compound 0.000316 µM): 98.6%
viability, T/C (second compound 3 µM, first compound 0.001 µM): 94.3%
viability, T/C (second compound 3 µM, first compound 0.00316 µM): 104%
viability, T/C (second compound 3 µM, first compound 0.01 µM): 117%
viability, T/C [11]: 115%
viability, T/C [12]: 139%

O=C(c1cc(Cc2n[nH]c(=O)c3ccccc23)ccc1F)N1CCN(C(=O)C2CC2)CC1 + CCN1C(C(=O)NC23CCC(C(=O)O)(CC2)CC3)C(c2cccc(Cl)c2F)C2(C(=O)Nc3cc(Cl)ccc32)C12CCCCC2
IC50 (second compound 0.00949 µM): > 10 µM
IC50 (second compound 0.03 µM): > 10 µM
IC50 (second compound 0.0949 µM): > 10 µM
IC50 (second compound 0.3 µM): > 10 µM
IC50 (second compound 0.949 µM): > 10 µM
IC50 (second compound 3 µM): > 10 µM
viability, T/C [1]: 99.8%
viability, T/C [2]: 86%
viability, T/C (second compound 0.00949 µM, first compound 0.316 µM): 85.7%
viability, T/C (second compound 0.00949 µM, first compound 1 µM): 98.2%
viability, T/C (second compound 0.00949 µM, first compound 3.16 µM): 97.8%
viability, T/C (second compound 0.00949 µM, first compound 10 µM): 102%
viability, T/C [3]: 93.2%
viability, T/C [4]: 94%
viability, T/C (second compound 0.03 µM, first compound 0.316 µM): 87.5%
viability, T/C (second compound 0.03 µM, first compound 1 µM): 100%
viability, T/C (second compound 0.03 µM, first compound 3.16 µM): 119%
viability, T/C (second compound 0.03 µM, first compound 10 µM): 102%
viability, T/C [5]: 101%
viability, T/C [6]: 91.7%
viability, T/C (second compound 0.0949 µM, first compound 0.316 µM): 94.2%
viability, T/C (second compound 0.0949 µM, first compound 1 µM): 87.6%
viability, T/C (second compound 0.0949 µM, first compound 3.16 µM): 120%
viability, T/C (second compound 0.0949 µM, first compound 10 µM): 115%
viability, T/C [7]: 85.2%
viability, T/C [8]: 85.9%
viability, T/C (second compound 0.3 µM, first compound 0.316 µM): 93.3%
viability, T/C (second compound 0.3 µM, first compound 1 µM): 91.4%
viability, T/C (second compound 0.3 µM, first compound 3.16 µM): 103%
viability, T/C (second compound 0.3 µM, first compound 10 µM): 120%
viability, T/C [9]: 99.6%
viability, T/C [10]: 108%
viability, T/C (second compound 0.949 µM, first compound 0.316 µM): 105%
viability, T/C (second compound 0.949 µM, first compound 1 µM): 95.5%
viability, T/C (second compound 0.949 µM, first compound 3.16 µM): 96.3%
viability, T/C (second compound 0.949 µM, first compound 10 µM): 114%
viability, T/C [11]: 115%
viability, T/C [12]: 104%
viability, T/C (second compound 3 µM, first compound 0.316 µM): 114%
viability, T/C (second compound 3 µM, first compound 1 µM): 103%
viability, T/C (second compound 3 µM, first compound 3.16 µM): 125%
viability, T/C (second compound 3 µM, first compound 10 µM): 107%

From PubChem BioAssay AID1963437 (Molecular Pharmacology Branch, DTP, NCI, 2024)
